Source: patent US9249086B2, “Carboxylic acid ALA esters” (Photocure ASA, priority 2012, dated 2016)
Structures can show the parent of a compound that is named as a salt.

Assays:
back skin of minipigs = assay: In vivo skin fluorescence study in minipigs (FluoDerm); conditions: 15% cream in Unguentum Merck, 0.5 g per site, 1.5, 5 and 12 hours after application, FIG. 1
Experimental: Compound 1c (carboxymethyl 5-amino-4-oxopentanoate hydrobromide, prepared according to Example 1c) was formulated as a cream in Unguentum Merck (15%, 150 mg/g; 0.56 mmol).
The cream was administered to the back skin of minipigs. Prior to application of the cream, the surrounding skin was cleaned with sterile water and gauze, if necessary. 0.5 g cream was applied to each test site (50 mm in diameter) resulting in a homogenous cream layer and then covered with a dressing (Tegaderm®). The gauze Vet-Flex® was used to keep the dressing in place.
Skin fluorescence at 630 nm was assessed prior to cream application and at 1.5, 5 and 12 hours after cream application using the FluoDerm instrument (DiaMedico ApS, Denmark) according to the manufacturers instructions. The FluoDerm instrument is a hand-held device for objective real-time in vivo measuring of average fluorescence over a circular field with diameter 40 mm. Measurements were electronically corrected for the actual ambient light.

[1] = tested on: sebaceous glands and epidermis of minipig skin; assay: Minipig skin biopsies, fluorescence microscopy; format: in vivo, minipigs; conditions: minipig skin biopsy sections; 15% cream
Experimental: The cream was administered as described above. At t=0 (i.e. prior to administration of the cream), 1.5, 5 and 12 hours, biopsy samples were taken using a 10 mm biopsy punch (AcuPunch 10 mm, Acuderm, USA). The samples were taken and handled in a minimally illuminated room. Each sample was trimmed free of any subcutaneous fatty tissue and thereafter cut in half. Each sample was then snap frozen in liquid nitrogen, in an aluminium foil bag or similar, and transferred to a −80° C. freezer.
The biopsy samples were sectioned at 10 μm and again care was taken to minimize the surrounding light. When sebaceous glands and epidermis could be identified, a series of 3 consecutive sections was prepared from each sample. The sections were examined within 15 minutes in a Leica DMRXE microscope equipped for both ordinary light microscopy and fluorescence microscopy. Epidermis and sebaceous glands were localized using conventional light microscopy. This was carried out within 5 seconds and then the light source was changed to a mercury lamp/fluorescence with filter set; excitation filter 390-447 nm, beam splitter 455 nm and an emission filter >600 nm. The sections were immediately photographed. Without moving the specimen the light source was changed back to conventional light microscopy and the sections were photographed in exactly the same position as for the fluorescence microscopy. As well as the epidermis and sebaceous glands, the dermis was analysed and if fluorescence was found also photographed. To further investigate localisation of all analyzed structures, the sections were stained with hematoxylin/eosin.
Image analysis was performed using the software program, Image J (version Fiji-win32.exe). With this program, average fluorescence intensity per pixel was measured from the saved images.

[2] = tested on: S. aureus strain DSM 20231 (ATCC 12600); assay: Dark toxicity in bacteria; format: cell-based, Staphylococcus aureus; conditions: 0.001, 0.1, 1 and 10 mM, plate not illuminated
Experimental: S. aureus strain DSM 20231 (ATCC 12600). The bacterial strain was grown for 24 hours on heart infusion agar (Difco) at 35-37° C. prior to carrying out the experiment and re-suspended in 20 mM PIPES, pH 7.2-7.4 at a concentration corresponding to a McFarland 0.5 standard (approximately 1-5×10^8 CFU/mL). In order to ensure viable cell cultures and to check the inoculum size and purity, bacterial stocks were made immediately prior to experimentation and the CFU/mL determined in a standard colony assay.
“Dark toxicity”, i.e. the toxic effect of the compounds in the absence of light (and therefore unrelated to PDT effects), can include bacteria cell death and therefore can interfere with the accurate measurement of the PDT effect, which also results in bacterial cell death. Dark toxicity can be measured by determining the toxicity of each compound under the same experimental conditions, but in the absence of light, thereby avoiding any PDT effect. The use of the compounds of the invention under conditions that produce low dark toxicity is advantageous because dark toxicity effects could also include harming or killing non-target cells and interfering with the PDT treatment itself. […]
Dark toxicity was determined as described in the paragraph “PDT-treatment” below, except that the plate was not illuminated. […]

[3] = tested on: Salmonella typhimurium, TA98 and TA100; assay: Ames test (mutagenic and photomutagenic potential); format: cell-based; conditions: absence and presence of S-9, absence and presence of visible light
Source text: The Ames test (see B. N. Ames et al, Methods for detecting carcinogens and mutagens with the Salmonella/mammalian-microsome mutagenicity test. Mutation Research 31, 347-364, 1975) is a standard test method approved by the regulatory authorities to detect an ability of a test chemical compound to induce mutation in certain bacterial strains. If a test chemical compound induces such mutations, it cannot be used in a pharmaceutical compound for use in humans.
The objective of this study was to evaluate the mutagenic potential and photomutagenic potential of compound 1c, carboxymethyl 5-amino-4-oxopentanoate hydrobromide (prepared according to Example 1c) by examining its ability to revert two histidine-requiring strains of Salmonella typhimurium, TA98 and TA100, in the absence and presence of a rat liver metabolising system (S-9) and also in the absence and presence of visible light. The latter was assessed since compound 1c is taken up by the bacteria cells and converted into a photosensitiser, which, upon illumination of said cells, might induce mutagenic products.

[4] = tested on: skin of healthy nude mice; assay: In vivo skin fluorescence study in healthy nude mice; conditions: cream in Unguentum Merck, equimolar (16-19%), about 100 μl on back, 6 hours in the dark, excitation 365 and 405 nm, mean of 5 mice
Experimental: A study was carried out to assess the potential of the compounds of the invention as precursors for photosensitisers for skin application. As such, the compounds of the invention need to be able to penetrate the skin, to be taken up by the cells in the skin and to be converted to photosensitisers. The result of this process can be visualized by exposing the skin to light which excites the photosensitiser molecules and to determine the amount of energy which is released in the form of fluorescence when the excited photosensitiser molecules relax to an energetically lower state.
Compounds 2, 4 and 7 above were formulated as creams in Unguentum Merck. The compounds were tested in equimolar amounts:
3 groups of mice (5 mice/group, each mouse of one group receiving the same cream formulation) were included in the experiment. About 100 μl of cream formulation was applied onto the back of one mouse. The mice were kept in the dark for 6 hours prior to skin fluorescence measurement to avoid photobleaching. For assessment of skin fluorescence, a fluorescence camera (Medeikonos PDD/PDT, Medeikonos AB, Gothenburg, Sweden) was used and images of the back of each mouse were taken. Excitation was carried out at wavelengths of 365 and 405 nm and 2 s illumination time. Each image was calibrated to a fluorescence standard (Uranyl Standard, J&M, Analytische Mess- and Regeltechnik GmbH, Hamburg, Germany) and adjusted for background fluorescence. The mean amount of skin fluorescence in each image was calculated by means of image analyzer-software (MatLab 7.2.0.232, Math-Works, Natick, Mass., USA) and the mean amount of skin fluorescence for each group of mice (5 mice/compound) was calculated.

[5] = tested on: Rat bladder cells (AY-27); assay: PpIX measurements in rat bladder cells; format: cell-based; conditions: AY-27 cells; for PpIX Mean ± SD: 2 hours incubation
Experimental: Rat bladder cells (AY-27) were grown in the culture medium (RPMI 1640 supplemented with 9% fetal calf serum 1% L-glutamin (200 mM) and 1% penicillin (10 000 UI), streptomycin (10 000 μg·mL^−1). Exponentially growing cells (AY-27) were incubated for 2 hours with freshly prepared solutions of 0.8 mM HAL (which is a tenth of the concentration which is used for bladder cancer […]). Control cells received serum-free medium without any test or reference compounds. After the incubation, the solutions or the medium was discarded and the cells were rinsed 2 times with ice-cooled PBS. PpIX was extracted from cells using an ice-cold lysis extraction mixture, consisting of ethanol/DMSO/acetic acid (80/20/1, v/v/v). The cell lysate was centrifuged (400 g, 10 min, 2° C.), the pellet was grinded and the suspension was sonicated for 15 min before being centrifuged. The fluorescence signal of PpIX was measured with a Perkin-Elmer LS 55 spectrometer (Perkin-Elmer, Beaconsfield, UK) and expressed as a function of the protein content. The fluorescence intensity at 635 nm in each sample was reported on a calibration curve established with PpIX (Sigma-Aldrich, France) diluted in extraction mixture as described above. The PpIX concentration was expressed relative to the protein content. Briefly, a lysis buffer mixture (1 mM EDTA, 1% Triton X-100 and 10 mM Tris-HCl; pH 7.4) was added to frozen cell dishes together with 500 mM PMSF (anti-protease) solution in DMSO. Lysates were kept on ice for 30 minutes and centrifuged at 4° C. for 20 minutes at 15 000 g. The protein content was then measured against a BSA calibration curve by a Biorad DC protein assay kit (Bio-Rad, France) based on a method developed by Lowry.

[6] = tested on: Rat bladder cells (AY-27); assay: Cytotoxicity in rat bladder cells (MTT test); format: cell-based; conditions: AY-27 cells; for Cytotoxicity: 2 hours, MTT test
Experimental: All experiments were performed in 4-5 replicates under subdued light. For concentrations of compounds 1 mM, the cytotoxicity was assessed with MTT test. Exponentially growing cells were incubated with freshly prepared solution or medium as described above for 2 hours in 96-well plates. After the incubation, the solutions or the medium was discarded and the cells were washed twice with PBS. Then 50 μl of MTT (2.5 mg·ml^−1) was added to 150 μl of RPMI serum-free medium per well and incubated for 3 hours. Absorbance was measured by dissolving formazan crystals with 50 μl of DMSO. The absorbance was normalized to that of control cells.

| Compound | Skin fluorescence at 630 nm over time (back skin of minipigs) | Selectivity for sebaceous glands [1] | Time after cream application at which fluorescence was also seen in the epidermis [1] | Time after cream application at which fluorescence was seen in the sebaceous glands [1] | Dark toxicity [2] | Induction of mutation or photomutation [3] | Skin fluorescence [4] | PpIX Mean ± SD ([5]; 1 mM) | PpIX Mean ± SD ([5]; 5 mM) | PpIX Mean ± SD ([5]; 15 mM) | PpIX concentration compared to HAL (0.8 mM) ([5]; compound at 1 mM) | PpIX concentration compared to HAL (0.8 mM) ([5]; compound at 5 mM) | Cytotoxicity ([6]; 1 mM) | Cytotoxicity ([6]; 5 mM) | Cytotoxicity ([6]; 15 mM) | Cytotoxicity at higher concentration ([6]; concentration higher than 5 mM) |
| --- | --- | --- | --- | --- | --- | --- | --- | --- | --- | --- | --- | --- | --- | --- | --- | --- |
| NCC(=O)CCC(=O)OCC(=O)O [Compound 1c, carboxymethyl 5-amino-4-oxopentanoate hydrobromide] | skin fluorescence increased with time | shows a selectivity for sebaceous glands | 5 h | 1.5 h | No dark toxicity was observed | did not induce mutation or photomutation |  |  |  |  |  |  |  |  |  |  |
| NCC(=O)CCC(=O)OCCC(=O)O [Compound 4, 2-carboxyethyl 5-amino-4-oxopentanoate hydrobromide] |  |  |  |  | No dark toxicity was observed |  | 8473 a.u. | 45 ± 8 pmoles/mg protein | 141 ± 24 pmoles/mg protein | 180 ± 94 pmoles/mg protein | significantly lower compared to HAL | About half of the PpIX concentration of HAL | 3 % of control | 14 % of control | 39 % of control | cytotoxicity was induced |
